Our source for the IC50 values is patent US12071425B2 (Genentech, Inc., priority 2018, dated 2024).

This test concerns the target kinase domain of IRE1 alpha (His-tagged kinase dead construct KR, AA G547-L977, D688N) (Homo sapiens (Human), UniProt O75460, D688N). Description: IRE1α TR-FRET competition binding assay. To be noted: competition with Kinase Tracer 236, 0.1 μM; one hour at room temperature. In a few lines: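 Compound displacement of an ATP-site fluorescent tracer (0.1 μM final) measured by TR-FRET after 1 h at room temperature. Protein, a His-tagged D688N kinase/RNase construct from Sf9 cells (0.006 μM final), was pre-bound 1 h at 4° C to Eu anti-His antibody (0.002 μM) in pH 7.5 HEPES buffer.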

Structures can show the parent of a compound that is named as a salt.

Chain of kinase domain of IRE1 alpha (His-tagged kinase dead construct KR, AA G547-L977, D688N) (O75460 547-977 D688N): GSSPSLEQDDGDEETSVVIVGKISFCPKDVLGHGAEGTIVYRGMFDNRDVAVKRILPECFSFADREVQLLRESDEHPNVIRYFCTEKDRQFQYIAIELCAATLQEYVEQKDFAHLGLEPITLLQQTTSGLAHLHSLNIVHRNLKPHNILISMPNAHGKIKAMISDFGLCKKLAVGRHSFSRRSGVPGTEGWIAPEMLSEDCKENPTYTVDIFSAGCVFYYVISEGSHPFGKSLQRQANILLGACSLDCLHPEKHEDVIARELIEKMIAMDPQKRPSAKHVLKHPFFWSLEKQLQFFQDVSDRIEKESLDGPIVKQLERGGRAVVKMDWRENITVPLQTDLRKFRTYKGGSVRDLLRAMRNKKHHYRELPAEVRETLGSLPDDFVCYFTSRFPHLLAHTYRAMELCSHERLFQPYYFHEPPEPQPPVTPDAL

Molecule `O=S(=O)(Cc1ccncc1)Nc1ccc(Oc2ncccc2-c2ccnc(N[C@H]3CCCNC3)n2)c(F)c1F` [Compound 234, (S)-N-(2,3-difluoro-4-(3-(2-(piperidin-3-ylamino)pyrimidin-4-yl)pyridin-2-yloxy)phenyl)-1-(pyridin-4-yl)methanesulfonamide] gave an IC50 of 7 nM. The figure for `O=S(=O)(Cc1ccc(F)cc1)Nc1ccc(Oc2ncccc2-c2ccnc(N[C@H]3CCCNC3)n2)c(F)c1F` [Compound 235, (S)-N-(2,3-difluoro-4-(3-(2-(piperidin-3-ylamino)pyrimidin-4-yl)pyridin-2-yloxy)phenyl)-1-(4-fluorophenyl)methanesulfonamide] is 4 nM. As to `Cn1ccc(CS(=O)(=O)Nc2c(F)cc(Oc3ncccc3-c3ccnc(N[C@H]4CCCNC4)n3)c(F)c2F)n1` [Compound 236, (S)-1-(1-methyl-1H-pyrazol-3-yl)-N-(2,3,6-trifluoro-4-(3-(2-(piperidin-3-ylamino)pyrimidin-4-yl)pyridin-2-yloxy)phenyl)methanesulfonamide], the IC50 is 9 nM. In turn, `Cc1c(Oc2ncccc2-c2ccnc(N[C@H]3CCCNC3)n2)ccc(NS(=O)(=O)Cc2ccccc2)c1F` [Compound 237, N-[2-Fluoro-3-methyl-4-[[3-[2-[[(3S)-3-piperidyl]amino]pyrimidin-4-yl]-2-pyridyl]oxy]phenyl]-1 phenylmethanesulfonamide] gave an IC50 of 8.4 nM. The figure for `O=S(=O)(Cc1ccccn1)Nc1ccc(Oc2ncccc2-c2ccnc(N[C@H]3CCCNC3)n2)c(F)c1F` [Compound 238, (S)—N-(2,3-Difluoro-4-(3-(2-(piperidin-3-ylamino)pyrimidin-4-yl)pyridin-2-yloxy)phenyl)-1-(pyridin-2-yl)methanesulfonamide] is 14 nM; for `N#Cc1ccc(CS(=O)(=O)Nc2ccc(Oc3ncccc3-c3ccnc(N[C@H]4CCCNC4)n3)c(F)c2F)cc1` [Compound 250, (S)-1-(4-Cyanophenyl)-N-(2,3-difluoro-4-((3-(2-(piperidin-3-ylamino)pyrimidin-4-yl)pyridin-2-yl)oxy)phenyl)methanesulfonamide] it is 4.9 nM; for `C[C@@]1(F)CNC[C@@H](Nc2nccc(-c3cccnc3Oc3cc(F)c(NS(=O)(=O)CC4CC(F)(F)C4)c(F)c3F)n2)C1` [Compound 251, 1-(3,3-Difluorocyclobutyl)-N-(2,3,6-trifluoro-4-((3-(2-(((3S,5S)-5-fluoro-5-methylpiperidin-3-yl)amino)pyrimidin-4-yl)pyridin-2-yl)oxy)phenyl)methanesulfonamide] it is 2.8 nM.

On to `COCCS(=O)(=O)Nc1c(F)cc(Oc2ncccc2-c2ccnc(N[C@@H]3CNC[C@@H](F)C3)n2)c(F)c1F` [Compound 252, 2-Methoxy-N-(2,3,6-trifluoro-4-((3-(2-(((3S,5S)-5-fluoropiperidin-3-yl)amino)pyrimidin-4-yl)pyridin-2-yl)oxy)phenyl)ethane-1-sulfonamide], for which the IC50 is 14 nM. The figure for `CC(F)(F)CCS(=O)(=O)Nc1c(F)cc(Oc2ncccc2-c2ccnc(N[C@@H]3CNC[C@@H](F)C3)n2)c(F)c1F` [Compound 253, 3,3-Difluoro-N-(2,3,6-trifluoro-4-((3-(2-(((3S,5S)-5-fluoropiperidin-3-yl)amino)pyrimidin-4-yl)pyridin-2-yl)oxy)phenyl)butane-1-sulfonamide] is 1.9 nM; for `O=S(=O)(Cc1ccc(C(F)(F)F)nc1)Nc1c(F)cc(Oc2ncccc2-c2ccnc(N[C@@H]3CNC[C@@H](F)C3)n2)c(F)c1F` [Compound 254, N-(2,3,6-Trifluoro-4-((3-(2-(((3S,5S)-5-fluoropiperidin-3-yl)amino)pyrimidin-4-yl)pyridin-2-yl)oxy)phenyl)-1-(6-(trifluoromethyl)pyridin-3-yl)methanesulfonamide] it is 0.62 nM. In turn, `Cc1c(F)c(NS(=O)(=O)Cc2ccc(C#N)cc2)c(F)c(F)c1Oc1ncccc1-c1ccnc(N[C@@H]2CNC[C@@H](F)C2)n1` [Compound 255, 1-(4-Cyanophenyl)-N-(2,3,6-trifluoro-4-((3-(2-(((3S,5S)-5-fluoropiperidin-3-yl)amino)pyrimidin-4-yl)pyridin-2-yl)oxy)-5-methylphenyl)methanesulfonamide] showed an IC50 of 230 nM. `O=S(=O)(Cc1cccnc1)Nc1c(F)cc(Oc2ncccc2-c2ccnc(N[C@@H]3CNC[C@@H](F)C3)n2)c(F)c1F` [Compound 256, 1-(Pyridin-3-yl)-N-(2,3,6-trifluoro-4-((3-(2-(((3S,5S)-5-fluoropiperidin-3-yl)amino)pyrimidin-4-yl)pyridin-2-yl)oxy)phenyl)methanesulfonamide] gave an IC50 of 1 nM. The figure for `C[C@H]1CC[C@H](Nc2nccc(-c3cccnc3Oc3cc(F)c(NS(=O)(=O)Cc4ccccc4)c(F)c3F)n2)CN1` [Compound 257, 1-Phenyl-N-(2,3,6-trifluoro-4-((3-(2-(((3S,6S)-6-methylpiperidin-3-yl)amino)pyrimidin-4-yl)pyridin-2-yl)oxy)phenyl)methanesulfonamide] is 24 nM. On to `O=S(=O)(Nc1c(F)cc(Oc2ncccc2-c2ccnc(N[C@@H]3CNC[C@@H](F)C3)n2)c(F)c1F)N1CCCC1` [Compound 258, N-(2,3,6-Trifluoro-4-((3-(2-(((3S,5S)-5-fluoropiperidin-3-yl)amino)pyrimidin-4-yl)pyridin-2-yl)oxy)phenyl)pyrrolidine-1-sulfonamide], for which the IC50 turned out to be 5.2 nM.

Take `O=S(=O)(Cc1ccccc1)Nc1c(F)cc(Oc2ncccc2-c2ccnc(N[C@@H]3CNC[C@H](F)C3)n2)c(F)c1F` [Compound 259, 1-Phenyl-N-(2,3,6-trifluoro-4-((3-(2-(((3S,5R)-5-fluoropiperidin-3-yl)amino)pyrimidin-4-yl)pyridin-2-yl)oxy)phenyl)methanesulfonamide]: the IC50 worked out at 2 nM.

The molecule `O=S(=O)(CC1(F)CC1)Nc1c(F)cc(Oc2ncccc2-c2ccnc(N[C@@H]3CNC[C@@H](F)C3)n2)c(F)c1F` [Compound 261, 1-(l-Fluorocyclopropyl)-N-(2,3,6-trifluoro-4-((3-(2-(((3S,5S)-5-fluoropiperidin-3-yl)amino)pyrimidin-4-yl)pyridin-2-yl)oxy)phenyl)methanesulfonamide] had an IC50 of 3.5 nM. `O=S(=O)(Cc1ccccc1)Nc1c(F)cc(Oc2ncccc2-c2ccnc(N[C@@H]3CNC[C@H](CF)C3)n2)c(F)c1F` [Compound 262, 1-Phenyl-N-(2,3,6-trifluoro-4-((3-(2-(((3S,5R)-5-(fluoromethyl)piperidin-3-yl)amino)pyrimidin-4-yl)pyridin-2-yl)oxy)phenyl)methanesulfonamide] showed an IC50 of 0.25 nM. In turn, `O=S(=O)(Nc1c(F)cc(Oc2ncccc2-c2ccnc(N[C@@H]3CNC[C@@H](F)C3)n2)c(F)c1F)N1CCCCC1` [Compound 263, N-(2,3,6-Trifluoro-4-((3-(2-(((3S,5S)-5-fluoropiperidin-3-yl)amino)pyrimidin-4-yl)pyridin-2-yl)oxy)phenyl)piperidine-1-sulfonamide] had an IC50 of 1.5 nM. The figure for `CN(C)S(=O)(=O)Nc1c(F)cc(Oc2ncccc2-c2ccnc(N[C@@H]3CNC[C@@H](F)C3)n2)c(F)c1F` [Compound 266, 4-(2-(4-(Dimethylsulfamoylamino)-2,3,5-trifluoro-phenoxy)-3-pyridyl)-2-(((3S,5S)-5-fluoro-3-piperidyl)amino)pyrimidine] is 8.6 nM. In turn, `O=S(=O)(CCC1CC1)Nc1c(F)cc(Oc2ncccc2-c2ccnc(N[C@@H]3CNC[C@@H](F)C3)n2)c(F)c1F` [Compound 267, 2-Cyclopropyl-N-(2,3,6-trifluoro-4-((3-(2-(((3S,5S)-5-fluoropiperidin-3-yl)amino)pyrimidin-4-yl)pyridin-2-yl)oxy)phenyl)ethane-1-sulfonamide] displayed an IC50 of 2.2 nM. The figure for `CCC(F)(F)CS(=O)(=O)Nc1c(F)cc(Oc2ncc(F)cc2-c2ccnc(N[C@@H]3CNC[C@@H](F)C3)n2)c(F)c1F` [Compound 268, 2,2-Difluoro-N-(2,3,6-trifluoro-4-((5-fluoro-3-(2-(((3S,5S)-5-fluoropiperidin-3-yl)amino)pyrimidin-4-yl)pyridin-2-yl)oxy)phenyl)butane-1-sulfonamide] is 1.1 nM; for `CCN(C)S(=O)(=O)Nc1c(F)cc(Oc2ncccc2-c2ccnc(N[C@@H]3CNC[C@@H](F)C3)n2)c(F)c1F` [Compound 269, 4-(2-(4-((Ethyl(methyl)sulfamoyl)amino)-2,3,5-trifluoro-phenoxy)-3-pyridyl)-2-(((3S,5S)-5-fluoro-3-piperidyl)amino)pyrimidine] it is 1.1 nM; for `CCC(F)(F)CS(=O)(=O)Nc1c(F)cc(Oc2nc(C)ccc2-c2ccnc(N[C@@H]3CNC[C@@H](F)C3)n2)c(F)c1F` [Compound 270, 2,2-Difluoro-N-(2,3,6-trifluoro-4-((3-(2-(((3S,5S)-5-fluoropiperidin-3-yl)amino)pyrimidin-4-yl)-6-methylpyridin-2-yl)oxy)phenyl)butane-1-sulfonamide] it is 0.54 nM. The figure for `O=S(=O)(CC1CC1(F)F)Nc1c(F)cc(Oc2ncccc2-c2ccnc(N[C@@H]3CNC[C@@H](F)C3)n2)c(F)c1F` (stereo partly drawn) [Compound 271, 1-(2,2-Difluorocyclopropyl)-N-(2,3,6-trifluoro-4-((3-(2-(((3S,5S)-5-fluoropiperidin-3-yl)amino)pyrimidin-4-yl)pyridin-2-yl)oxy)phenyl)methanesulfonamide] is 3.6 nM; for `CN(C)[C@H]1CC[C@H](Nc2nccc(-c3cccnc3Oc3cc(F)c(NS(=O)(=O)Cc4ccccc4)c(F)c3F)n2)CC1` [Compound 272, N-(4-((3-(2-(((1r,4r)-4-(Dimethylamino)cyclohexyl)amino)pyrimidin-4-yl)pyridin-2-yl)oxy)-2,3,6-trifluorophenyl)-1-phenylmethanesulfonamide hydrochloride] it is 0.15 nM.
